Values after ≈ are worked out from the molar mass of the structure shown.
Experiments:
[1] = system: Bacillus subtilis ATCC 6051; test: Minimum inhibitory concentration; format: cell-based; details: ATCC6051, read-out: MIC, Bacillus subtilis ATCC 6051
[2] = system: Gram-positive bacteria (S. aureus, S. epidermidis, and B. subtilis); test: MIC assays summarised across the Gram-positive bacteria; format: cell-based; details: MIC without versus with 0.002% polysorbate 80

CN[C@H](CC(C)C)C(=O)N[C@H]1C(=O)N[C@@H](CC(N)=O)C(=O)N[C@H]2C(=O)N[C@H]3C(=O)N[C@H](C(=O)N[C@H](C(=O)O)c4cc(O)cc(O)c4-c4cc3ccc4O)[C@H](O)c3ccc(c(Cl)c3)Oc3cc2cc(c3O[C@@H]2O[C@H](CO)[C@@H](O)[C@H](O)[C@H]2O[C@H]2C[C@](C)(N)[C@H](O)[C@H](C)O2)Oc2ccc(cc2Cl)[C@H]1O [vancomycin]
MIC [1]: 0.5 µg/mL (≈ 0.345 µM)
decrease in the MIC with 0.002% polysorbate 80 [2]: modest two-fold decrease
